Source: ChEMBL document CHEMBL4406814, “Furocoumarins as multi-target agents in the treatment of cystic fibrosis” (Eur J Med Chem, 2019)
pIC50: −log10 of the molar value.

Assays:
Assay type in all cases: cell-based
[1] = Inhibition of TNF-alpha induced NFkappaB in human IB31 cells assessed as reduction in IL-8 mRNA expression preincubated for 5 hrs followed by TNF-alpha stimulation measured after 24 hrs by RT-qPCR analysis; settings: IB3-1
IB3-1 [2] = experiment: Inhibition of TNF-alpha induced NFkappaB in human IB3-1 cells assessed as reduction in IL-8 mRNA expression at 10 uM preincubated for 5 hrs followed by TNF-alpha stimulation measured after 24 hrs by RT-qPCR analysis relative to control
IB3-1 [3] = experiment: Inhibition of TNF-alpha induced NFkappaB in human IB3-1 cells assessed as reduction in IL-8 mRNA expression at 1 uM preincubated for 5 hrs followed by TNF-alpha stimulation measured after 24 hrs by RT-qPCR analysis relative to control

Row | Compound | pIC50 [1] | inhibition (IB3-1 [2]) [%] | inhibition (IB3-1 [3]) [%]
1 | Cc1cc2c(C(C)C)cc(=O)oc2c2c(C)coc12 | 4.72 | – | –
2 | Cc1oc2c(c(C)cc3oc(=O)cc(C)c32)c1C | – | 47 | 66
3 | Cc1oc2c(C)cc3c(C)cc(=O)oc3c2c1C | – | 56 | 57
4 | CCc1cc(=O)oc2c1cc(CC)c1occ(C)c12 | 4.75 | – | –
5 | CCc1cc2c(C)cc(=O)oc2c2c(C)coc12 | 4.62 | – | –
6 | Cc1cc2c(CO)cc(=O)oc2c2c(C)coc12 | – | 52 | 51
7 | Cc1cc(=O)oc2c1ccc1oc(CN)cc12 | – | 83 | 55
8 | CCc1cc2c(C(C)C)cc(=O)oc2c2c(C)coc12 | 5.13 | – | –
9 | CCCc1cc(=O)oc2c1cc(CC)c1occ(C)c12 | 4.70 | – | –
10 | CCc1cc(=O)oc2c1cc(C)c1occ(C)c12 | 5.10 | – | –
11 | CCCc1cc(=O)oc2c1cc(C)c1occ(C)c12 | 4.66 | – | –
12 | Cc1coc2c1c(C)cc1oc(=O)cc(C)c12 | – | 52 | 73
13 | Cc1cc2c(C)cc3oc(=O)cc(C)c3c2o1 | – | 81 | 68
